Laboratory results published in PubChem BioAssay (NCI).
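Five concentrations, 48 hours, 96-well plates. TGI denotes the concentration required for complete inhibition of growth.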

How the values were obtained:
Test in all cases: NCI tumour cell line growth inhibition, 48 h
[1] = tested on: DMS 273 small cell lung
[2] = tested on: K-562 leukemia
[3] = tested on: SK-MEL-2 melanoma
[4] = tested on: MOLT-4 leukemia
[5] = tested on: HOP-92 NSCLC
[6] = tested on: LXFL 529 NSCLC
[7] = tested on: UO-31 renal
[8] = tested on: SK-MEL-5 melanoma
[9] = tested on: KM12 colon
[10] = tested on: DLD-1 colon
[11] = tested on: SF-268 CNS
[12] = tested on: OVCAR-4 ovarian
[13] = tested on: HCT-116 colon
[14] = tested on: M19-MEL melanoma
[15] = tested on: TK-10 renal
[16] = tested on: A549 NSCLC
[17] = tested on: SW-620 colon
[18] = tested on: SK-OV-3 ovarian
[19] = tested on: SR leukemia
[20] = tested on: NCI-H23 lung
[21] = tested on: EKVX NSCLC
[22] = tested on: COLO 205 colon
[23] = tested on: ACHN renal
[24] = tested on: CAKI-1 renal
[25] = tested on: DMS 114 small cell lung
[26] = tested on: IGROV1 ovarian
[27] = tested on: HL-60(TB) leukemia
[28] = tested on: KM20L2 colon
[29] = tested on: SNB-75 CNS
[30] = tested on: CCRF-CEM leukemia
[31] = tested on: SNB-19 CNS
[32] = tested on: SK-MEL-28 melanoma
[33] = tested on: OVCAR-3 ovarian
[34] = tested on: SF-295 CNS
[35] = tested on: XF 498 CNS
[36] = tested on: M14 melanoma
[37] = tested on: HCT-15 colon
[38] = tested on: HCC-2998 colon
[39] = tested on: UACC-62 melanoma
[40] = tested on: OVCAR-8 ovarian
[41] = tested on: SN12C renal
[42] = tested on: NCI-H460 lung
[43] = tested on: HT29 colon
[44] = tested on: A498 renal
[45] = tested on: U251 CNS
[46] = tested on: MALME-3M melanoma
[47] = tested on: HOP-62 NSCLC
[48] = tested on: UACC-257 melanoma
[49] = tested on: RPMI-8226 leukemia
[50] = tested on: OVCAR-5 ovarian
[51] = tested on: NCI-H522 lung
[52] = tested on: SF-539 CNS

Measured: TGI

CC(C)OP(=O)(OC(C)C)/C(F)=N/Nc1ccc([N+](=O)[O-])cc1
> 100 µM: all assays above
